Key:
[1] = system: full-thickness skin defect wound surfaces; assay: Effect of Hst1-MAD cyclic peptide on wound repair in mice (Example 22): healing rate, histology, immunohistochemistry, immunofluorescence double staining, Western Blot; type: in vivo, C57 BL/6 mice
Description: […]. 36 healthy male special pathogen-free grade C57 BL/6 mice (purchased from Guangdong Experimental Animal Center) of 6-8 weeks old and weighing 22-28 g. They were intraperitoneally injected with 5 ml/kg of 1% pentobarbital sodium for anesthesia. After the mice had no corneal reflex, the hair on their backs was carefully removed and disinfected with alcohol. […] full-thickness skin defect wound surfaces were prepared on the back of each mouse by using a circular skin punch. […]. Each wound surface was added with 0.5 ml of four drugs respectively, and administration was conducted every day until the wound surfaces of the experimental groups healed. Photographs were taken on days 0, 3, 5, and 10 after surgery, and wound tissues were sampled on days 3, 5, and 10 for subsequent pathological staining.
was observed and photographed with a digital camera (see FIG. 19), and the wound healing rate was calculated (see FIG. 20). Wound healing rate=(wound area immediately after injury−unhealed wound area at each time point)÷wound area immediately after injury×100%.
The wound specimens were fixed in 4% paraformaldehyde for 48 hours, rinsed with tap water for 10 minutes, dehydrated with graded ethanol, permeabilized with xylene, and embedded in paraffin to prepare 4 μm thick sections. Some sections were taken and subjected to HE staining to detect an epidermal thickness and subjected to Masson staining to detect newly grown collagen. Through hematoxylin-cosin staining (HE), the effects of the four groups of drugs on newly grown epidermal at the wound surface on day 10 were evaluated (FIGS. 21 and 22). Through Masson staining, the effects of the four groups of drugs on newly grown collagen at the wound surface on days 5 and 10 were evaluated (FIGS. 23 and 24). 5 sections were taken from each mouse, and 5 fields of view were selected for each section. Data analysis was performed using the software Image-pro Plus.
and rehydrated, subjected to antigen thermal repair with a 0.1 mol/L citric acid buffer (with a pH value of 6.0) for 20 minutes, treated with hydrogen peroxide with a volume fraction of 10% for inactivation of endogenous peroxidase for 10 minutes, and blocked with 50 g/L of bovine serum albumin for 2 hours. It was added with a rabbit anti-mouse CD31 primary antibody (with a dilution ratio of 1:300) and a mouse anti-VEGF (with a dilution ratio of 1:100), incubated overnight at 4° C., and washed with PBS. It was rewarmed for 1 hour, washed with PBS, added dropwise with ready-to-use biotinylated goat anti-mouse and goat anti-rabbit IgG secondary antibodies, incubated for 2 hours, and washed with PBS. It was subjected to DAB development, hematoxylin counterstaining. gradient ethanol dehydration, xylene permeabilization, and resin blocking. 5 sections were taken from each mouse, and 5 fields of view were selected for each section. The sections were observed under a 400× inverted fluorescence microscope, and analyzed for the number of CD31-positive blood vessels (see FIG. 25) and VEGF expression amounts (see FIG. 26) by using Image-pro Plus software.
The specific steps were: the previous steps were the same as those of 1.3.3, and they were incubated with the antibodies MHCII (orb101661; 1:500; Biorbyt Biotechnology Co., Ltd., Wuhan, CN), CD11c (97585; 1:200; Cell Signaling Technology Inc., Boston, MA), CD68 (GB11067; 1:300; Servicebio Inc.), CD80 (GB11034; 1:300; Servicebio Inc.), CD206 (GB11062; 1:500; Servicebio Inc.), claudin1 (37-4900; 1:100; Thermo Fisher Scientific Co., Ltd, Shanghai, CN) and claudin2 (32-5600; 1:200; Thermo Fisher Scientific Co., Ltd.) at 4° C. overnight. The fluorescent-labeled secondary antibodies were incubated at room temperature for 1 h, followed by 4′,6-diamidino-2′-phenylindole (DAPI) (G1012; Google Biotechnology Co., Ltd., Wuhan, CN). The stained sections were photographed by using a fluorescence microscope (Nikon Eclipse TI-SR. Tokyo, Japan). […]

fibroblasts (NIH/3T3) = assay: Scratching experiment, Hst1 cyclic peptides (Examples 11 and 12); type: cell-based; conditions: dosage needed to achieve the same pharmaceutical effect in the scratch experiment
Description: At the same time, fibroblasts (NIH/3T3; GNM 6; Chinese Academy of Sciences, China) were plated into a 6-well plate at a number of 2×10^6/well and cultured to a density of 70-80%. The cells were starved for 8-12 hours before the experiment. Mitomycin C (Sigma Aldrich, USA) was added into the culture medium to make its concentration in the culture medium be 15 μg/ml, and the culture medium was changed after 3 hours of treatment. Scratching was conducted with a 200 μl pipette tip perpendicular to the bottom of the well-plate with the same force, and the well-plate was rinsed with PBS twice after scratching. Each well was added with an appropriate amount of a DEME medium (10% FBS, 1% double antibody), and except for the blank control group, each well was added with 10 μM of the linear Hst1, 0.01 μM of the propynylglycine-Hst1 cyclic peptide, 0.1 μM of the propynylglycine-Hst1 cyclic peptide and 1 μM of the propynylglycine-Hst1 cyclic peptide as experimental groups. At 0 hour, the cells in each group were photographed by using a microscope (Olympus, Japan). […] The scratched area of each group was calculated by using imageJ (Rawak Software, Inc. Germany) software, and the scratch area at 0 hour was an initial scratch area. The scratch healing rate was calculated as follows: […]

[2] = day 3 after surgery, Western Blot, 10 μM Histatin1
[3] = day 10, immunofluorescence, 1 μM Click-Hst1-MAD, 1 μM Hst1-MAD, 10 μM Histatin1

Linear Hst1: linear peptide Hst1 (Histatin1), amino acid sequence SEQ ID NO.1
number of M2 macrophages (CD68+ and CD206+) ([1]; day 3, 1 μM Click-Hst1-MAD, 10 μM Hst1, M±SD): 12.67±7.34 | expression level of HO-1 relative to the control group [1, 2]: 1.80 times | expression level of Nrf2 relative to the control group [1, 2]: 1.27 times | expression level of NQO1 relative to the control group ([1]; day 3 after surgery, Western Blot, 10 μM Hst1): 2.08 times | number of dendritic cells (MHCII+ and CD11c+) relative to the control group ([1]; day 3 after surgery, 10 μM Hst1, 1 μM Click-Hst1-MAD): 1.75 times | VEGF expression amount ([1]; day 5, 1 μM Click-Hst1-MAD, 10 μM Histatin1, 1 μM Hst1-MAD compared with each other): comparable | expression levels of the dermal collagen ([1]; day 5, 1 μM Hst1-MAD and 10 μM Histatin1 compared with each other): equivalent | Claudin1 expression intensity [1, 3]: equivalent expression level of Claudin1 | Claudin2 expression intensity [1, 3]: no obvious effect on promoting Claudin2 expression | VEGF expression amount ([1]; day 10, 1 μM Click-Hst1-MAD, 10 μM Histatin1): higher | number of dendritic cells (MHCII+ and CD11c+) ([1]; days 3 and 5 evaluated, 1 μM Click-Hst1-MAD, 1 μM Hst1-MAD, 10 μM Histatin1): significantly higher than that in the Control group | number of M1 macrophages (CD68+ and CD80+) ([1]; days 3 and 5 evaluated, 1 μM Hst1-MAD, 10 μM Histatin1): lower than that in the Control group | number of CD31-positive blood vessels ([1]; days 5 and 10, immunohistochemistry, 1 μM Click-Hst1-MAD, 1 μM Hst1-MAD, 10 μM Histatin1): significantly higher than that in the Control group | Dosage of agents required for scratch test (fibroblasts (NIH/3T3)): 10 µM

— patent US20240336658A1, “CYCLIC PEPTIDE AND PREPARATION METHOD AND USE THEREOF” (HANGZHOU HUIBO SCIENCE AND TECHNOLOGY CO., LTD, priority 2021, published 2024)
